From EP1144365B1 (TANABE SEIYAKU CO., LTD., priority 1998, dated 2000)

Each molecule was assayed against T1, α4β1 (Homo sapiens, UniProt P05556+P13612) (assay: Jurkat-CS-1 assay). Conditions: Jurkat cell adhesion to immobilized CS-1 derived peptide.
T1 construct: 100 µl of Jurkat cells (2.5 x 10^6 cells/ml) in DMEM plus BSA; host or cells: Jurkat T-cell line
Type: cell-based
Description: The CS-1 derived peptide, CLHPGEILDVPST, and the scrambled control peptide, CLHGPIELVSDPT, were synthesized on a Beckman 990 synthesizer using t-Boc methodology. The peptides were immobilized onto microtiter plates using the heterobifunctional crosslinker 3-(2-pyridyldithio)propionic acid N-hydroxysuccinimide ester (SPDP) as reported by Pierschbacher et al., Proc. Natl. Acad. USA, 80:1224-1227 (1983). Microtiter plates were coated with 20 µg/ml HSA for 2 hr. at room temperature, washed once with PBS and derivatized with 10 µg/ml SPDP for 1 hr. After washing, 100 µl of a 100 µg/ml cysteine containing peptide solution which had been recently dissolved was added to the wells and allowed to crosslink to the plates overnight at 4 °C. Unbound peptide was removed from plates by washing with PBS. To block non-reacted sites, the plates are coated with 100 µl of a 2.5 mg/ml BSA solution in PBS for 1 hr. at 37 °C. 100 µl of Jurkat cells (2.5 x 10^6 cells/ml) in DMEM plus BSA (2.5 mg/ml) was mixed with an appropriate concentration of the compound to be tested and the mixture was added to peptide coated dishes and incubated for 1 hr. at 37 °C. Generally 100, 20, 5 and 1.25 µM concentrations of the compound were tested.
Following this incubation the plates were washed once with PBS and the attached cells were fixed with 3% paraformaldehyde in PBS and stained with 0.5% toluidine blue in 3.7% formaldehyde. The cells were stained overnight at room temperature and the optical density at 590 nm of toluidine blue stained cells was determined using a vertical pathway spectrophotometer to quantitate attachment (VMAX Kinetic Microplate Reader, Molecular Devices, Menlo Park, CA). This procedure is a modification of a previously published method (Cardarelli et al, J. Biol. Chem., 269:18668-18673 (1994) and Cardarelli et al, Proc. Natl. Acad. Sci. USA, 83:2647-2651 (1986)).

T1 sequence (P13612 34-1032): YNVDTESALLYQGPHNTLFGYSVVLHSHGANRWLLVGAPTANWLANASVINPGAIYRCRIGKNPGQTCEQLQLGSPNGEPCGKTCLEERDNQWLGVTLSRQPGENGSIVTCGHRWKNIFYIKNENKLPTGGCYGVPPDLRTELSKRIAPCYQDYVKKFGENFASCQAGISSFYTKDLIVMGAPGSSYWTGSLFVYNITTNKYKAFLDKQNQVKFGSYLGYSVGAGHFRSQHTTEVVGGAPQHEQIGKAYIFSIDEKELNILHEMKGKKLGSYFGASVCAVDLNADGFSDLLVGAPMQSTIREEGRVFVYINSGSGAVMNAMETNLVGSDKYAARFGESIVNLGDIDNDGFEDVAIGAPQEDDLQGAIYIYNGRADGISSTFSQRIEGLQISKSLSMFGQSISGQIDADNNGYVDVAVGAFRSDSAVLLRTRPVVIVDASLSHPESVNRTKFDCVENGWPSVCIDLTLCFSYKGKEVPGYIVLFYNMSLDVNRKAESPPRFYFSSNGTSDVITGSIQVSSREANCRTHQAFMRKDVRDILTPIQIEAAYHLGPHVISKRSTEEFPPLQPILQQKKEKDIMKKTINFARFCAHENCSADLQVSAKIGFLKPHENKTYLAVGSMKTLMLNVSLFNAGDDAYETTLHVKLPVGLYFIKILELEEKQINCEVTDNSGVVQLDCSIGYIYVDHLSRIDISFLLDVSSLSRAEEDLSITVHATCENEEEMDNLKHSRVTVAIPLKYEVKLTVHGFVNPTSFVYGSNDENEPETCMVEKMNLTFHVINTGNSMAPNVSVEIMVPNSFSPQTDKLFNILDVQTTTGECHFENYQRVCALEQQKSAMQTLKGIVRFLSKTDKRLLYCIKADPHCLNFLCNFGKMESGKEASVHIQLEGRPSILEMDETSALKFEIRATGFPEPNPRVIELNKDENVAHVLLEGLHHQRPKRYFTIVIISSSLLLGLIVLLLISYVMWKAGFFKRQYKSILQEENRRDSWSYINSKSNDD
T1 sequence (P05556 21-798): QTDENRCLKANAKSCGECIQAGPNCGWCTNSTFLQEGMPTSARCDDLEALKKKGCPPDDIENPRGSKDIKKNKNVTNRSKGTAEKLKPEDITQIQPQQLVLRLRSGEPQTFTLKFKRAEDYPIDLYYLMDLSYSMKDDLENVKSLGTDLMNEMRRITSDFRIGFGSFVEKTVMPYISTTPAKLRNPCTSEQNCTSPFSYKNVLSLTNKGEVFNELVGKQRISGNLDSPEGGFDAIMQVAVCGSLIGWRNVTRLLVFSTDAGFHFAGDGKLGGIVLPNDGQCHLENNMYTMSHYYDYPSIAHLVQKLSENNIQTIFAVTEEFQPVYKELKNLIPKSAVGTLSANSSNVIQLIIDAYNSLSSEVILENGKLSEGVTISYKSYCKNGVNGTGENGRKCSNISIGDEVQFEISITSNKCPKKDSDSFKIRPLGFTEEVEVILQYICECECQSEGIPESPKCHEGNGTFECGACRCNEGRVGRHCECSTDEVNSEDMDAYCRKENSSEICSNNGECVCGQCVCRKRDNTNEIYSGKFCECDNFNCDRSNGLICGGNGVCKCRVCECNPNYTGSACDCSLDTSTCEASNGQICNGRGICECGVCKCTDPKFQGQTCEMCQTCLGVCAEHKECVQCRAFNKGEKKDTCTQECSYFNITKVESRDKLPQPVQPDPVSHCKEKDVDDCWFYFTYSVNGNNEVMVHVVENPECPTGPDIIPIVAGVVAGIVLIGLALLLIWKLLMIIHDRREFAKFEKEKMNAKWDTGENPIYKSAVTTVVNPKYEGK

Row | Compound | IC50 [µM]
1 | O=C(O)c1ccc(C(=O)NC2CCCCC2C(=O)NC(Cc2ccc(NC(=O)c3c(Cl)cccc3Cl)cc2)C(=O)O)nc1 (centres unmarked) [Example 81] | 0.08 to 0.5
2 | O=C(Nc1ccc(C[C@H](NC(=O)C2(NC(=O)C3CCOC3)CCCCC2)C(=O)O)cc1)c1c(Cl)cccc1Cl (some centres unmarked) [Example 69] | 0.08 to 0.5
3 | O=C(N[C@@H](Cc1ccc(NC(=O)c2c(Cl)cccc2Cl)cc1)C(=O)O)c1cccc(NC(=O)C2CCCC(C(=O)O)C2)c1 (some centres unmarked) [Example 38] | 0.5 to 1
4 | O=C(O)c1cccc(C(=O)N[C@H]2CCCC[C@H]2C(=O)N[C@@H](Cc2ccc(NC(=O)c3c(Cl)cccc3Cl)cc2)C(=O)O)n1 (relative stereo) [Example 80] | 0.08 to 0.5
5 | O=C(Nc1ccc(C(=O)O)cc1)NC1(C(=O)N[C@@H](Cc2ccc(NC(=O)c3c(Cl)cccc3Cl)cc2)C(=O)O)CCCCC1 [Example 60] | 0.5 to 1
6 | O=C(O)CNC(=O)Nc1cccc(C(=O)N[C@@H](Cc2ccc(NC(=O)c3c(Cl)cccc3Cl)cc2)C(=O)O)c1 [Example 33, N-[3-[(N'-Carboxymethyl)ureido]benzoyl]-4-[(2,6-dichlorobenzoyl)amino]-L-phenylalanine] | 0.08 to 0.5
7 | CC1(C)[C@@H](C(=O)N[C@@H](Cc2ccc(OCc3c(Cl)cccc3Cl)cc2)C(=O)O)C[C@H]1C(=O)O [Example 95, (1S-cis)-N-[(3-Carboxy-2,2-dimethylcyclobutyl)carbonyl]-4-[(2,6-dichlorophenyl)methoxy]-L-phenylalanine] | 0.5 to 1
8 | CC(=O)CCC(=O)Nc1cccc(C(=O)N[C@@H](Cc2ccc(NC(=O)c3c(Cl)cccc3Cl)cc2)C(=O)O)c1 [Example 39] | 0.5 to 1
9 | O=C(COc1ccc(C(=O)O)cc1)N[C@@H](Cc1ccc(NC(=O)c2c(Cl)cccc2Cl)cc1)C(=O)O [Example 12, N-[(4-carboxyphenoxy)acetyl]-4-[(2,6-dichlorobenzoyl)amino]-L-phenylalanine] | 0.5 to 1
10 | O=C(O)CNC(=O)NC1(C(=O)N[C@@H](Cc2ccc(NC(=O)c3c(Cl)cccc3Cl)cc2)C(=O)O)CCCCC1 [Example 54] | 0.5 to 1
11 | O=C(O)CCC(=O)Nc1cccc(C(=O)N[C@@H](Cc2ccc(NC(=O)c3c(Cl)cccc3Cl)cc2)C(=O)O)c1 [Example 34] | 0.5 to 1
12 | O=C(O)c1cccc(C(=O)Nc2cccc(C(=O)N[C@@H](Cc3ccc(NC(=O)c4c(Cl)cccc4Cl)cc3)C(=O)O)c2)c1 [Example 42] | 0.5 to 1

Each molecule was assayed against T2, α4β1 integrin (Homo sapiens, UniProt P05556+P13612) (assay: Jurkat-Endothelial Cell Adhesion Assay (Jurkat EC)). Conditions: Jurkat cell adhesion to IL-1 stimulated endothelial cell monolayers.
T2 construct: a T-cell line, Jurkat, known to express the α4β1 integrin; host or cells: Jurkat T-cell line
Type: cell-based
Description: The following assay established the activity of the present compounds in inhibiting β1-mediated cell adhesion in a representative in vitro system. This assay measures the adhesive interactions of a T-cell line, Jurkat, known to express the α4β1 integrin, to endothelial monolayers in the presence of test compounds. The test compounds were added in increasing concentrations to T-cells and then the T-cell compound mixture was added to IL-1 stimulated endothelial cell monolayers. The plates were incubated, washed and the percentage of attached cells was quantitated.
Human umbilical vein endothelial cells were purchased from Clonetics (San Diego, CA.) at passage number 2. The cells were grown on 0.5% porcine skin gelatin pre-coated flasks (Sigma, St. Louis MO.) in EGM-UV media (Clonetics, San Diego, CA) supplemented with 10% fetal bovine serum. Cells are refed every 2-3 days reaching confluence by day 4 to 6. […] The endothelial cells are not used following passage 6.
The T-cell line Jurkat was obtained from American Type Tissue Culture Collection (Rockville, MD) and the cells were cultured in RPMI containing 10 % fetal calf serum. The cells were washed twice in Hank's Balanced Salt Solution (HBSS) and resuspended in Dulbecco's Minimal Eagle's Media (DMEM) containing 2.5 mg/ml Human Serum Albumin (HSA). Jurkat cells (1x10^6 cells/ml) were stained with 10 ng/ml BCECF-AM (Molecular Probes, Eugene, OR)) in HBSS without phenol red. The cells were loaded with BCECF for 60 minutes in the dark at 37°C, washed 2 times, and resuspended in DMEM-HSA solution.
Confluent endothelial monolayers, grown in 96-well tissue culture plates, were stimulated for 4 hr. at 37 °C with 0.1 ng/ml (∼50 U/ml) recombinant IL-1 (Amgen, Thousand Oaks, CA). Following this incubation, the monolayers were washed twice with HBSS and 0.1 ml of DMEM-HSA solution was added. Jurkat cells (5 x 10^5 cells) were combined with the appropriate concentration of the test compound and 0.1 ml of the Jurkat cell-compound mixture was added to the endothelial cell monolayers. Generally, 100, 20, 5 and 1.25 µM compound concentrations were tested. […] Following this incubation, the monolayers were washed twice with PBS containing 1 mM calcium chloride and 1 mM magnesium chloride' and the plates were read using a Millipore Cytofluor 2300 (Marlboro, MA.). Fluorescence in each well was measured as Arbitrary Fluorescence Units and percent adhesion in the absence of compound was adjusted to 100% and the % adhesion in the presence of compound was calculated. Monolayers were also fixed in 3% paraformaldehyde and evaluated microscopically to verify the adhesion. This procedure is a modification of a previously published method (Cardarelli et al., J. Biol. Chem. 269:18668-18673 (1994)).

T2 sequence (P13612 34-1032): as the sequence (P13612 34-1032) above
T2 sequence (P05556 21-798): as the sequence (P05556 21-798) above

Row | Compound | IC50 [µM]
13 | O=C(Nc1ccc(CC(NC(=O)C2CCCCC2C(=O)O)C(=O)O)cc1)c1c(Cl)cccc1Cl (centres unmarked) [Example 8] | 0.8 to 5
14 | O=C(O)c1ccc(C(=O)NC2CCCCC2C(=O)NC(Cc2ccc(NC(=O)c3c(Cl)cccc3Cl)cc2)C(=O)O)nc1 (centres unmarked) [Example 81] | 0.8 to 5
15 | O=C(Nc1ccc(C[C@H](NC(=O)C2(NC(=O)C3CCOC3)CCCCC2)C(=O)O)cc1)c1c(Cl)cccc1Cl (some centres unmarked) [Example 69] | ≤ 0.8
16 | CC(C)(Oc1cccc(C(=O)O)c1)C(=O)N[C@@H](Cc1ccc(NC(=O)c2c(Cl)cccc2Cl)cc1)C(=O)O [Example 15] | 0.8 to 5
17 | O=C(N[C@@H](Cc1ccc(NC(=O)c2c(Cl)cccc2Cl)cc1)C(=O)O)c1cccc(NC(=O)C2CCCC(C(=O)O)C2)c1 (some centres unmarked) [Example 38] | 0.8 to 5
18 | O=C(O)c1cccc(C(=O)N[C@H]2CCCC[C@H]2C(=O)N[C@@H](Cc2ccc(NC(=O)c3c(Cl)cccc3Cl)cc2)C(=O)O)n1 (relative stereo) [Example 80] | 0.8 to 5
19 | O=C(Nc1ccc(C[C@H](NC(=O)N2CCCC[C@H]2C(=O)O)C(=O)O)cc1)c1c(Cl)cccc1Cl [Example 11] | 5 to 10
20 | O=C(N[C@@H](Cc1ccc(NC(=O)c2c(Cl)cccc2Cl)cc1)C(=O)O)c1cccc(NC(=O)c2ccccc2C(=O)O)c1 [Example 41] | 5 to 10
21 | O=C(N[C@@H](Cc1ccc(NC(=O)c2c(Cl)cccc2Cl)cc1)C(=O)O)c1ccc(O)c(CN2CCOCC2)c1 [Example 4] | 0.8 to 5
22 | CC(O)[C@@H]1C[C@H](CC(=O)N[C@@H](Cc2ccc(NC(=O)c3c(Cl)cccc3Cl)cc2)C(=O)O)C1(C)C (stereo partly drawn) [Example 92, [1R-(1α,3α)]-4-[(2,6-Dichlorobenzoyl)amino]-N-[[3-(1-hydroxyethyl)-2,2-dimethylcyclobutyl]acetyl]-L-phenylalanine] | 0.8 to 5
23 | CC(Sc1ccccc1C(=O)O)C(=O)N[C@@H](Cc1ccc(NC(=O)c2c(Cl)cccc2Cl)cc1)C(=O)O (some centres unmarked) [Example 24] | 5 to 10
24 | CC1(C)[C@@H](C(=O)N[C@@H](Cc2ccc(NC(=O)c3ccc(Cl)nc3Cl)cc2)C(=O)O)C[C@H]1C(=O)O [Example 108, (1S-cis)-N-[(3-Carboxy-2,2-dimethylcyclobutyl)carbonyl] -4-[[(2,6-dichloro-3-pyridinyl)carbonyl]amino]-L-phenylalanine] | 0.8 to 5
25 | CC(C)(Oc1cccc(/C=C/C(=O)O)c1)C(=O)N[C@@H](Cc1ccc(NC(=O)c2c(Cl)cccc2Cl)cc1)C(=O)O [Example 22] | 0.8 to 5
26 | CC1(C)[C@H](CC(=O)N[C@@H](Cc2ccc(NC(=O)c3c(Cl)cccc3Cl)cc2)C(=O)O)C[C@@H]1C(=O)O [Example 90, (1S-cis)-N-[(3-Carboxy-2,2-dimethylcyclobutyl)acetyl]-4-[(2,6-dichlorobenzoyl)amino]-L-phenylalanine] | 5 to 10
27 | O=C(O)c1cccc(OC(C(=O)N[C@@H](Cc2ccc(NC(=O)c3c(Cl)cccc3Cl)cc2)C(=O)O)c2ccccc2)c1 (some centres unmarked) [Example 16] | 0.8 to 5
28 | CC(Oc1ccccc1C(=O)O)C(=O)N[C@@H](Cc1ccc(NC(=O)c2c(Cl)cccc2Cl)cc1)C(=O)O (some centres unmarked) [Example 28] | 0.8 to 5
29 | CC(=O)c1cccc(OC(C)C(=O)N[C@@H](Cc2ccc(NC(=O)c3c(Cl)cccc3Cl)cc2)C(=O)O)c1 (some centres unmarked) [Example 18] | 0.8 to 5
30 | CC1(C)[C@@H](C(=O)N[C@@H](Cc2ccc(OCc3c(Cl)cccc3Cl)cn2)C(=O)O)C[C@H]1C(=O)O (relative stereo) [Example 109, [1S-[1α(R*),3α]]-α-[[(3-Carboxy-2,2-dimethylcyclobutyl)carbonyl]amino]-3-[(2,6-dichlorophenyl)methoxy]-6-pyridinepropanoic acid] | 0.8 to 5
31 | O=C(Nc1ccc(C[C@H](NC(=O)N2CCC(C(=O)O)CC2)C(=O)O)cc1)c1c(Cl)cccc1Cl [Example 113, 1-[[[(1S)-1-carboxy-2-[4-[(2,6-dichlorobenzoyl)amino]phenyl]ethyl]amino]carbonyl]-4-piperidinecarboxylic acid] | 0.8 to 5
32 | CC1=C(C(=O)O)C(C)(C)CC/C1=C\C(=O)N[C@@H](Cc1ccc(NC(=O)c2c(Cl)cccc2Cl)cc1)C(=O)O [Example 121, N-[(1E)-3-Carboxy-2,4,4-trimethyl-2-cyclohexen-1-ylideneacetyl]-4-[(2,6-dichlorobenzoyl)amino]-L-phenylalanine] | 0.8 to 5
33 | O=C(/C=C1/CCCc2c(C(=O)O)cccc21)N[C@@H](Cc1ccc(NC(=O)c2c(Cl)cccc2Cl)cc1)C(=O)O [Example 137, N-[(1Z)-5-Carboxy-3,4-dihydro-1(2H)-naphthalenylideneacetyl]-4-[(2,6-dichlorobenzoyl)amino] -L-phenylalanine] | 5 to 10
34 | CC(Oc1cccc(C(=O)O)c1)C(=O)N[C@@H](Cc1ccc(NC(=O)c2c(Cl)cccc2Cl)cc1)C(=O)O (some centres unmarked) [Example 14] | 0.8 to 5
35 | CC(Oc1cccc(/C=C/C(=O)O)c1)C(=O)N[C@@H](Cc1ccc(NC(=O)c2c(Cl)cccc2Cl)cc1)C(=O)O (some centres unmarked) [Example 21] | 5 to 10
